Reference: PubChem BioAssay (NCI)
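Five concentrations, 48 hours, 96-well plates. TGI marks complete inhibition of growth.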

How the values were obtained:
Assay in all cases: NCI-60 cell line screen, 48 h
A498 renal = system: A498 renal
HS 578T breast = system: HS 578T breast
PC-3 prostate = system: PC-3 prostate
NCI-H522 lung = system: NCI-H522 lung
SF-268 CNS = system: SF-268 CNS
SW-620 colon = system: SW-620 colon
SN12C renal = system: SN12C renal
MOLT-4 leukemia = system: MOLT-4 leukemia
NCI-H460 lung = system: NCI-H460 lung
UACC-62 melanoma = system: UACC-62 melanoma

Structure (SMILES) | TGI (A498 renal) | TGI (HS 578T breast) | TGI (PC-3 prostate) | TGI (NCI-H522 lung) | TGI (SF-268 CNS) | TGI (SW-620 colon) | TGI (SN12C renal) | TGI (MOLT-4 leukemia) | TGI (NCI-H460 lung) | TGI (UACC-62 melanoma)
C=C1C(=O)C([Si](C)(C)C)=C2C=C(C)C3(CC3)C12C (stereo not given) | > 100 µM | > 100 µM | 42.5 µM | 66.2 µM | > 100 µM | > 100 µM | > 100 µM | 11.9 µM | > 100 µM | > 100 µM
O=S1(=O)c2cnccc2NC(=NCc2cccc3ccccc23)N1c1ccccc1 | > 100 µM | > 100 µM | > 81.8 µM | > 100 µM | > 100 µM | > 100 µM | > 100 µM | > 100 µM | > 100 µM | > 100 µM
O=C(O)c1c[nH]c2c(Sc3ccccc3)nccc2c1=O | > 100 µM | > 100 µM | > 100 µM | > 100 µM | > 100 µM | > 100 µM | > 100 µM | > 100 µM | > 100 µM | > 100 µM
O=c1[nH]c(=O)n(C2OC(CO)C(O)C(F)C2O)cc1F (stereo not given) | > 100 µM | > 100 µM | > 100 µM | > 100 µM | > 100 µM | > 100 µM | > 100 µM | 62 µM | > 100 µM | > 100 µM
COc1ccc(C2c3cc4c(cc3C(O)C3CCC(=O)N23)OCO4)cc1 (stereo not given) | > 100 µM | > 100 µM | > 100 µM | > 100 µM | > 100 µM | > 100 µM | > 100 µM | > 100 µM | > 100 µM | > 100 µM
C/C(=N\N)C(CN(C)C)C(c1ccccc1)c1c(O)c2ccccc2oc1=O (stereo not given) | > 100 µM | > 100 µM | > 100 µM | > 100 µM | > 100 µM | > 100 µM | > 100 µM | > 100 µM | > 100 µM | > 100 µM
Cc1ccc(NCC2CC/C(=C\c3ccc(Cl)cc3)C2=O)cc1 (stereo not given) | > 73.3 µM | > 100 µM | 37.5 µM | 15.8 µM | 56.4 µM | 16.5 µM | 33.3 µM | > 32.4 µM | > 62.4 µM | 58.6 µM
O=C1CSC2(CC(/C=C/c3ccccc3O)=NN2c2cccc(S(=O)(=O)O)c2)N1c1nc2ccccc2s1 (stereo not given) | > 100 µM | > 100 µM | > 100 µM | 30.4 µM | > 100 µM | > 100 µM | 78.7 µM | 82.9 µM | > 100 µM | > 100 µM
O=C1c2cc3c(cc2CC12Cc1cc4c(cc1C2=O)CCCC4)CCCC3 | > 100 µM | 72.5 µM | > 100 µM | > 100 µM | > 100 µM | > 100 µM | > 100 µM | > 100 µM | > 100 µM | > 100 µM
CC(C)OP(=O)(OC(C)C)C(C(C)C)N(C)/C(N)=N\C1=NC(C(F)(F)F)(C(F)(F)F)N=C(C(C(F)(F)F)C(F)(F)F)O1 (stereo not given) | 23.5 µM | > 100 µM | 8.42 µM | 3.09 µM | 12 µM | 5.48 µM | 10.5 µM | 4.78 µM | 9.91 µM | 4.7 µM
O=C(O)C1CC2C3CCC2C1C3=O (stereo not given) | > 100 µM | > 100 µM | > 100 µM | > 100 µM | > 100 µM | > 100 µM | > 100 µM | > 100 µM | > 100 µM | > 100 µM
CCOC(=O)c1cc(Sc2ccc(N)c(C(=O)OCC)c2)ccc1N | 72.1 µM | > 100 µM | > 100 µM | > 100 µM | > 100 µM | > 100 µM | 40.3 µM | > 100 µM | > 100 µM | > 100 µM
CCOC(=O)CCC(NC(=O)Cc1ccc(Nc2nc3ccccc3nc2-c2ccccc2)cc1)C(=O)OCC (stereo not given) | > 100 µM | 74.6 µM | > 100 µM | > 100 µM | 23.7 µM | > 100 µM | > 100 µM | > 100 µM | > 100 µM | > 100 µM
Oc1ccccc1/C=N/Nc1nnc2c3ccccc3c3ccccc3c2n1 | > 100 µM | > 100 µM | > 100 µM | 54.1 µM | > 100 µM | > 100 µM | > 100 µM | > 100 µM | > 100 µM | > 100 µM
Fc1c(F)c(C(F)(F)F)c(F)c(F)c1N/N=C\c1c[nH]c2ccccc12 | 15 µM | 28.9 µM | 8.01 µM | 5.57 µM | 19.4 µM | 12.5 µM | 11.8 µM | 10.3 µM | 3.93 µM | 10.5 µM
Fc1cc(C2=C[C@H](c3ccc(Cl)cc3)NC(=S)N2)c(Cl)cc1Cl | 89.6 µM | > 100 µM | > 100 µM | > 100 µM | > 100 µM | > 100 µM | 79.6 µM | > 100 µM | > 100 µM | > 100 µM

Structure (SMILES) | TGI (A498 renal) | TGI (HS 578T breast) | TGI (PC-3 prostate) | TGI (NCI-H522 lung) | TGI (SF-268 CNS) | TGI (SW-620 colon) | TGI (SN12C renal) | TGI (MOLT-4 leukemia) | TGI (NCI-H460 lung) | TGI (UACC-62 melanoma)
NC(=O)C(Nc1c(Cl)cccc1Cl)c1cc2cc(Br)ccc2nc1Cl (stereo not given) | > 100 µM | > 100 µM | > 100 µM | > 100 µM | > 100 µM | > 100 µM | > 100 µM | 57.6 µM | > 100 µM | > 100 µM
Cc1c2ccncc2cc2c1sc1ccncc12 | 13.8 µM | 20.4 µM | 10.5 µM | 9.09 µM | 14.4 µM | 16.7 µM | 16.5 µM | 2.45 µM | 4.77 µM | 8.41 µM
COc1cc(OCc2ccc3nc(-c4ccccc4)c(N)nc3c2)cc(OC)c1OC | 73.8 µM | 78.3 µM | 45.4 µM | 37.7 µM | > 100 µM | > 100 µM | > 100 µM | 28.8 µM | 39.7 µM | 28.2 µM
CCOC(=O)C(c1c[nH]c2ccccc12)(c1c[nH]c2ccccc12)c1c[nH]c2ccccc12 | > 100 µM | 76.2 µM | 71.2 µM | 80.1 µM | > 100 µM | 75.9 µM | > 100 µM | 40.8 µM | > 100 µM | > 100 µM
COc1ccc(/C=C2\OC(=O)C(Cl)=C2c2ccc(OC)cc2)cc1 | > 100 µM | > 100 µM | > 100 µM | > 100 µM | > 100 µM | > 100 µM | > 100 µM | > 100 µM | > 100 µM | > 100 µM
C[C@@]12C=CC3C/C(=N\C(N)=S)C=C(CCCC4OCCO4)[C@]3(CC1)C2 (stereo not given in full) | 33.1 µM | 72.5 µM | 50.7 µM | 22.9 µM | 87.8 µM | 48.9 µM | 30.8 µM | 59.2 µM | 32 µM | 30.4 µM
Cc1occc1C(=S)Nc1ccc(Cl)c(C(=O)OCC(F)(F)F)c1 | 30.5 µM | > 100 µM | 57.8 µM | 45.5 µM | 42.3 µM | 56.3 µM | 41.4 µM | 55.8 µM | 48.1 µM | 32 µM
COc1cc2c(cc1OC)-c1[nH]c3ccc(C#N)cc3c1CC(=O)N2 | > 100 µM | > 100 µM | > 100 µM | > 100 µM | > 100 µM | > 100 µM | > 100 µM | > 100 µM | > 100 µM | > 100 µM
C[C@H]1[C@H](C)N(Cc2ccccc2)P(=O)(C(O)/C=C/c2ccccc2)N1Cc1ccccc1 (stereo not given in full) | 10.3 µM | 12.3 µM | 13 µM | > 25 µM | > 25 µM | > 25 µM | 8.75 µM | > 25 µM | 10.2 µM | 8.13 µM
COc1ccc(Br)c2c1CC(C(=O)O)CC2 (stereo not given) | > 100 µM | > 100 µM | > 100 µM | > 100 µM | > 100 µM | > 100 µM | > 100 µM | > 100 µM | > 100 µM | > 100 µM
CSc1nc2ccccc2c(=O)n1/N=C1\C(=O)N(CN2CCCCC2)c2ccc(Cl)cc21 | 96.6 µM | > 100 µM | > 100 µM | 37.3 µM | > 100 µM | 52.1 µM | > 100 µM | 39.9 µM | > 100 µM | > 100 µM
CCCCCC(=O)Nc1n[nH]nc1C(N)=O | > 100 µM | > 100 µM | > 100 µM | > 100 µM | > 100 µM | > 100 µM | > 100 µM | > 100 µM | > 100 µM | > 100 µM
COc1ccc(/C=C(\Cl)c2ccc(OC)c(OC)c2)cc1OC | > 100 µM | > 100 µM | > 100 µM | > 100 µM | > 100 µM | > 100 µM | > 100 µM | > 100 µM | > 100 µM | > 100 µM
c1csc(-c2cscc2-c2ccsc2)c1 | > 100 µM | > 31.6 µM | > 77.9 µM | > 100 µM | > 100 µM | > 100 µM | > 100 µM | > 100 µM | > 100 µM | > 100 µM
CCCCc1ccc(Nc2nc(Cl)c3c(ncn3COCCOC(C)=O)n2)cc1 | 38.8 µM | 55.2 µM | 37.4 µM | 33.4 µM | 38.5 µM | 41.4 µM | 34.8 µM | 42.5 µM | 34.4 µM | 31.1 µM
O=C(NC(C(F)(F)F)(C(F)(F)F)P(=O)(c1ccccc1)c1ccccc1)C(C(F)(F)F)C(F)(F)F | > 100 µM | > 100 µM | 80.8 µM | 71.6 µM | > 100 µM | 62.3 µM | 77 µM | > 100 µM | > 100 µM | > 100 µM
